Assay results taken from patent publication US20030124132A1 (University of Texas, published 2003).

How the values were obtained:
L540 tumors = test: Anti-tumor activity of anti-VCAM-1·tTF coaguligand in L540 tumors; assay type: in vivo, SCID mice; details: controls
Procedure: The anti-tumor activity of anti-VCAM-1-tTF coaguligand was determined in SCID mice bearing 0.3-0.4 cm^3 L540 tumors. The drug was administered i.v. 3 times at intervals of 4 days.

L540 tumor blood vessels = test: Thrombosis of L540 tumor vessels by anti-VCAM-1·tTF coaguligand; assay type: in vivo, mice; details: equivalent quantities
Description: Before coaguligand injection, tumors were viable, having a uniform morphology lacking regions of necrosis. […] Within four hours of coaguligand injection, 40-70% of blood vessels were thrombosed. despite the initial staining of only 20-30% of tumor blood vessels. The thrombosed vessels contained occlusive platelet aggregates, packed erythrocytes and fibrin. In several regions, the blood vessels had ruptured, spilling erythrocytes into the tumor interstitium.

TNFα = TNFα serum levels in treated animals (Quantikine-M kit); assay type: in vivo, mice; details: tTF containing no endotoxin (n=6); any of the time points
Procedure: (§1) Mice were closely observed after treatment for clinical signs of toxicity and clinical status was documented at defined time points (5 minutes, 10 minutes, 15 minutes, 30 minutes. 1 hour, 2 hours, 24 hours, 48 hours, 72 hours). Blood samples were taken from the tail vein at 1 hour, 2 hours and 24 hours to measure TNFα blood levels. Three days after treatment, the mice were anesthetized, blood samples were taken from the vena cava for coagulation tests, and an autopsy was performed to document any changes in gross pathology. Tumors, lymph node metastases and the major normal organs (heart, lung, brain, liver, kidney, colon, spleen, pancreas) were harvested and prepared for histological analysis.
TNFα levels in serum were deter-mined using the Quantikine-M kit (R&D Systems, Minneapolis, Minn.) according to the manufacturer's instructions.

immobilized tTF = target: T1, immobilized tTF (Homo sapiens, UniProt P13726); test: Real time binding of tTF to immobilized tTF (surface plasmon resonance); details: tTF alone or preincubated with endotoxin or factor VIIa
T1 construct: Recombinant soluble Tissue Factor protein (amino acids 1-219) was extracted from the periplasmic space of transformed E. coli; made in house; host or cells: E. coli (periplasmic secretion, vector pswc7)

[1] = Clinical signs of toxicity and histology of normal organs in treated tumor-bearing mice; assay type: in vivo, SCID mice; details: for Symptoms (clinical signs of toxicity): endotoxin-free tTF alone
Procedure: (§2) Treatment was initiated when subcutaneous tumors reached a size of 150 to 300 μl. Reagents were administered into the lateral tail vein.
as §1
(§3) Tissue samples harvested at the time of autopsy were fixed in 3% NBF (normal buffered formalin) and embedded in paraffin wax. Tissue blocs were cut, dewaxed and stained with hematoxilin and eosin (H&E). Tissue sections were analyzed on a light microscope by two independent investigators and histological findings were documented. Tumor sections with necrotic areas were scanned with a GS-700 imaging densitometer (Biorad, Hercules, Calif.) and areas of necrosis were calculated as % of total section area. Statistical Analysis was performed using SPSS software (SPSS Science Software, Erkrath, Germany) applying the Mann-Whitney-U-test for ungrouped data.

[2] = test system: thrombin-antithrombin-complexes (TAT); test: Plasma thrombin-antithrombin-complexes (Enzygnost TAT micro-assay) three days after treatment; assay type: in vivo; details: tTF alone; tumor bearing mice, three days after i.v. treatment
Procedure: as §1
At the time of autopsy, citrated blood was sampled from the vena cava and thrombocyte-free plasma was prepared by centrifugation. […] Thrombin-Antithrombin-complexes were detected with the Enzygnost® TAT micro-assay (Dade-Behring, Marburg, Germany) according to the manufacturer's instructions. ATIII levels were determined using the Coamatic® antithrombin-assay (Haemocbrom, Essen, Germany) following the manufacturer's instructions. Changes in the blood levels of thrombin and plasmin were detected by mixing citrated plasma with the respective chromogenic substrates S2238 and S2403 (Haemochrom, Essen, Germany) and measuring the increase of the absorption at 405 nm by an ELISA reader.

[3] = test system: L540rec human Hodgkin's lymphoma tumors; test: Tumor tissue necrosis in L540 Hodgkin's lymphoma-bearing mice after tTF and/or endotoxin; assay type: in vivo, SCID mice
Procedure: For in vivo studies, a metastasizing mouse model for human Hodgkin's lymphoma was used. 1×10^7 L540rec cells were injected subcutaneously into the right flank of SCID mice resulting in a subcutaneous tumor with lymph node metastases in the regional lymph node stations. Subcutanous tumors were measured with a caliper in three perpendicular directions a. b, and c, and volumes calculated according to the formula V=π/6×a×b×c.
as §2, §1, §3

C1300 Muγ tumors = test: Anti-tumor effects of tTF and immunoglobulin-tTF in C1300 Muγ tumors; assay type: in vivo, nu/nu mice; details: tTF alone or mixed with control bispecific antibodies
Procedure: The tumor test systems were: i) L540 human Hodgkin's disease tumors growing in SCID mice; ii) C1300 Muγ (interferon-secreting) neuroblastoma growing in nu/nu mice; iii) H460 human non-small cell lung carcinoma growing in nu/nu mice. To establish solid tumors, 1.5×10^7 tumor cells were injected subcutaneously into the right anterior flank of SCID or BALB/c nu/nu mice (Charles River Labs., Wilmingham, Mass.). When the tumors had grown to various diameters, mice were assigned to different experimental groups, each containing 4 to 9 mice.
Other mice received equivalent quantities of bispecific antibody alone. The injections were performed over ˜45 seconds into one of the tail veins, followed by 200 μl of saline. The infusions were repeated six days later. Perpendicular tumor diameters were measured at regular intervals and tumor volumes were calculated.
Mice bearing small (300 mm^3) C1300 Muγ tumors were injected intravenously with 16-20 μg tTF219. The treatment was repeated one week later. […] One week after the second treatment with tTF219, tumors were 60% of the size of tumors in mice receiving diluent alone. The greater effectiveness of the second injection probably derives from the greater thrombotic action of tTF219 on vessels in large tumors, observed above.
Mice bearing small (300 mm^3) subcutaneous C1300 Muγtumors were treated with tTF219 or with a complex of tTF219 and a bispecific antibody, OX7 Fab′/10H10 Fab′, not directed to a component of the tumor environment. The treatment was repeated 6 days later.

T1 sequence (P13726 33-251): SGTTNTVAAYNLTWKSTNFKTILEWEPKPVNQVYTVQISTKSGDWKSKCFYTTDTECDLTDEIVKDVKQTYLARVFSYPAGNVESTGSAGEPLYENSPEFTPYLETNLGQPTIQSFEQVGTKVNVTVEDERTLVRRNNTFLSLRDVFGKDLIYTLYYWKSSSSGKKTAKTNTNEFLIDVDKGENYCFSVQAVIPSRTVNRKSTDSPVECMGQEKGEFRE

## tTF: extracellular domain of the mature Tissue Factor protein (amino acid 1-219), recombinant; depyrogenated in Example X
L540 tumors
  effect on tumor growth: did not affect tumor growth
L540 tumor blood vessels
  control reagents causing thrombosis: None
TNFα
  TNFα in serum: could not be detected
Immobilized tTF
  binding to immobilized tTF: did not bind to or homodimerize with immobilized tTF
[1]
  Symptoms (clinical signs of toxicity): no clinical signs of toxicity
[1]; listed as TTF
  Symptoms (clinical signs of toxicity): None
[1]; light microscopy, three days after treatment
  histology of normal organs (necrosis, thrombosis, abnormalities): No histological abnormalities were seen
[2]
  TAT: 25.4 ng/mL
[3]; Table 2, tTF alone, three days after i.v. treatment
  % tumor necrosis: 4%
[3]; endotoxin-free tTF alone, 4 μg or 16 μg i.v., three days after treatment
  tumor tissue necrosis: 0%
[3]; tTF alone, 4 μg to 16 μg
  anti-tumor effect: no anti-tumor effect
[3]; tTF alone, 100 μg
  anti-tumor effect: anti-tumor effects begin to appear
C1300 Muγ tumors
  tumor growth versus antibodies or saline alone: grew significantly more slowly
